Test results from the NIST ThermoML archive (doi:10.1021/je049777o).
± gives the expanded uncertainty stated by the source.

Test: xn = mol fraction of the nth substance listed
Settings: 101.3 kPa, Liquid

Clc1ccccc1 [chlorobenzene] + COC(=O)OC
Settings | mass density [kg/m3] | viscosity [mPa·s]
293.15 K, x2 = 0 | 1106.74 ± 0.4 | 0.8084 ± 0.021
293.15 K, x2 = 0.1225 | 1102.19 ± 0.38 | 0.7794 ± 0.02
293.15 K, x2 = 0.238 | 1097.84 ± 0.36 | 0.7586 ± 0.019
293.15 K, x2 = 0.3499 | 1093.69 ± 0.34 | 0.7315 ± 0.019
293.15 K, x2 = 0.4545 | 1089.67 ± 0.32 | 0.7132 ± 0.018
293.15 K, x2 = 0.5559 | 1085.85 ± 0.3 | 0.698 ± 0.018
293.15 K, x2 = 0.6518 | 1082.22 ± 0.29 | 0.6805 ± 0.018
293.15 K, x2 = 0.7445 | 1078.84 ± 0.27 | 0.6567 ± 0.017
293.15 K, x2 = 0.8332 | 1075.58 ± 0.26 | 0.6449 ± 0.017
293.15 K, x2 = 0.9182 | 1072.42 ± 0.25 | 0.6244 ± 0.017
298.15 K, x2 = 0 | 1101.33 ± 0.4 | 0.7422 ± 0.019
298.15 K, x2 = 0.1225 | 1096.65 ± 0.37 | 0.7318 ± 0.019
298.15 K, x2 = 0.238 | 1092.16 ± 0.35 | 0.7193 ± 0.019
298.15 K, x2 = 0.3499 | 1087.88 ± 0.33 | 0.6956 ± 0.018
298.15 K, x2 = 0.4545 | 1083.72 ± 0.31 | 0.6864 ± 0.018
298.15 K, x2 = 0.5559 | 1079.81 ± 0.29 | 0.6627 ± 0.017
298.15 K, x2 = 0.6518 | 1076.05 ± 0.28 | 0.6427 ± 0.017
298.15 K, x2 = 0.7445 | 1072.55 ± 0.26 | 0.6226 ± 0.017
298.15 K, x2 = 0.8332 | 1069.17 ± 0.25 | 0.6017 ± 0.016
298.15 K, x2 = 0.9182 | 1065.93 ± 0.24 | 0.5856 ± 0.016
303.15 K, x2 = 0 | 1095.96 ± 0.39 | 0.7053 ± 0.018
303.15 K, x2 = 0.1225 | 1091.12 ± 0.36 | 0.6862 ± 0.018
303.15 K, x2 = 0.238 | 1086.51 ± 0.34 | 0.6624 ± 0.017
303.15 K, x2 = 0.3499 | 1082.09 ± 0.32 | 0.646 ± 0.017
303.15 K, x2 = 0.4545 | 1077.8 ± 0.3 | 0.6408 ± 0.017
303.15 K, x2 = 0.5559 | 1073.76 ± 0.28 | 0.6134 ± 0.016
303.15 K, x2 = 0.6518 | 1069.91 ± 0.27 | 0.6014 ± 0.016
303.15 K, x2 = 0.7445 | 1066.28 ± 0.26 | 0.5781 ± 0.016
303.15 K, x2 = 0.8332 | 1062.78 ± 0.24 | 0.5632 ± 0.015
303.15 K, x2 = 0.9182 | 1059.45 ± 0.23 | 0.5487 ± 0.015
313.15 K, x2 = 0 | 1085.06 ± 0.38 | 0.631 ± 0.017
313.15 K, x2 = 0.1225 | 1079.97 ± 0.35 | 0.6145 ± 0.016
313.15 K, x2 = 0.238 | 1075.08 ± 0.33 | 0.5875 ± 0.016
313.15 K, x2 = 0.3499 | 1070.36 ± 0.31 | 0.5709 ± 0.015
313.15 K, x2 = 0.4545 | 1065.81 ± 0.29 | 0.563 ± 0.015
313.15 K, x2 = 0.5559 | 1061.54 ± 0.27 | 0.5423 ± 0.015
313.15 K, x2 = 0.6518 | 1057.46 ± 0.25 | 0.5322 ± 0.015
313.15 K, x2 = 0.7445 | 1053.56 ± 0.24 | 0.5192 ± 0.014
313.15 K, x2 = 0.8332 | 1049.86 ± 0.23 | 0.4992 ± 0.014
313.15 K, x2 = 0.9182 | 1046.32 ± 0.22 | 0.4874 ± 0.014
323.15 K, x2 = 0 | 1074.26 ± 0.36 | 0.5677 ± 0.015
323.15 K, x2 = 0.1225 | 1068.8 ± 0.34 | 0.5546 ± 0.015
323.15 K, x2 = 0.238 | 1063.63 ± 0.31 | 0.5273 ± 0.015
323.15 K, x2 = 0.3499 | 1058.61 ± 0.29 | 0.5145 ± 0.014
323.15 K, x2 = 0.4545 | 1053.8 ± 0.27 | 0.5039 ± 0.014
323.15 K, x2 = 0.5559 | 1049.32 ± 0.26 | 0.4878 ± 0.014
323.15 K, x2 = 0.6518 | 1044.96 ± 0.24 | 0.4729 ± 0.014
323.15 K, x2 = 0.7445 | 1040.83 ± 0.23 | 0.4591 ± 0.013
323.15 K, x2 = 0.8332 | 1036.88 ± 0.21 | 0.4468 ± 0.013
323.15 K, x2 = 0.9182 | 1033.12 ± 0.2 | 0.4365 ± 0.013
333.15 K, x2 = 0 | 1063.32 ± 0.35 | 0.5069 ± 0.014
333.15 K, x2 = 0.1225 | 1057.53 ± 0.33 | 0.4954 ± 0.014
333.15 K, x2 = 0.238 | 1052.07 ± 0.3 | 0.4791 ± 0.014
333.15 K, x2 = 0.3499 | 1046.76 ± 0.28 | 0.4619 ± 0.013
333.15 K, x2 = 0.4545 | 1041.66 ± 0.26 | 0.452 ± 0.013
333.15 K, x2 = 0.5559 | 1036.93 ± 0.24 | 0.4401 ± 0.013
333.15 K, x2 = 0.6518 | 1032.33 ± 0.23 | 0.4277 ± 0.013
333.15 K, x2 = 0.7445 | 1027.92 ± 0.21 | 0.415 ± 0.013
333.15 K, x2 = 0.8332 | 1023.72 ± 0.2 | 0.4046 ± 0.012
333.15 K, x2 = 0.9182 | 1019.74 ± 0.19 | 0.3949 ± 0.012
343.15 K, x2 = 0 | 1052.44 ± 0.34 | 0.4658 ± 0.013
343.15 K, x2 = 0.1225 | 1046.33 ± 0.31 | 0.455 ± 0.013
343.15 K, x2 = 0.238 | 1040.54 ± 0.29 | 0.4326 ± 0.013
343.15 K, x2 = 0.3499 | 1034.93 ± 0.27 | 0.4242 ± 0.013
343.15 K, x2 = 0.4545 | 1029.51 ± 0.25 | 0.4142 ± 0.013
343.15 K, x2 = 0.5559 | 1024.52 ± 0.23 | 0.3978 ± 0.012
343.15 K, x2 = 0.6518 | 1019.67 ± 0.21 | 0.3879 ± 0.012
343.15 K, x2 = 0.7445 | 1014.99 ± 0.2 | 0.377 ± 0.012
343.15 K, x2 = 0.8332 | 1010.53 ± 0.19 | 0.3678 ± 0.012
343.15 K, x2 = 0.9182 | 1006.31 ± 0.17 | 0.3609 ± 0.012
